Experimental data from the supplement of paper PMC4862054.

Columns and labels:
Conditions in all cases: incubation time: 72 h
HDQ-P1 = test: drug sensitivity score (DSS), CellTox Green (DSS (AUC-based score)); higher = stronger drug effect (viability inhibition or cytotoxicity); extreme values may be limits of the assay
How it was run: (§1)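 Each compound occupied 5 concentrations in 10-fold steps over its own 10,000-fold range in 384-well plates, into which breast cancer cell lines were seeded as 20 µl suspension. Following 72 h of incubation, CellTox Green fluorescence (485/520 nm) was measured, and CellTiter-Glo luminescence was measured after 10 min at room temperature. Plates were individually normalised to 0.1 % DMSO and a positive kill control. From the area under the fitted dose-response curve, a drug sensitivity score was calculated.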

Hs578T [1] = test: as above
How it was run: as §1

HCC1599 = test: as above
How it was run: as §1

BT-549 [2] = test: as above
How it was run: as §1

HCC1143 = test: as above
How it was run: as §1

HCC1937 = test: as above
How it was run: as §1

CAL-51 = test: as above
How it was run: as §1

MCF-10A = test: as above
How it was run: as §1

CAL-148 [3] = test: as above
How it was run: as §1

MDA-MB-231 [4] = test: as above
How it was run: as §1

MDA-MB-453 [5] = test: as above
How it was run: as §1

CAL-85-1 = test: as above
How it was run: as §1

DU-4475 [6] = test: as above
How it was run: as §1

MDA-MB-436 = test: as above
How it was run: as §1

BT-474 = test: as above
How it was run: as §1

MDA-MB-468 [7] = test: as above
How it was run: as §1

CAL-120 = test: normalised viability (% of control), CellTiter-Blue; higher = more viable cells (about 100 = DMSO control)
How it was run: (§2)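 Vehicle (100) and a positive kill control (0) anchored the normalisation of each plate, and Z'-factor was used for quality control. Breast cancer cell lines in 20 µl suspension were incubated 72 h over compound in 5 µl medium in 384-well plates, followed by CellTiter-Blue at 560/590 nm. The value is normalised viability at a single listed concentration of the series.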

MFM-223 = test: as above
How it was run: as §2

Hs578T [8] = test: as above
How it was run: as §2

BT-549 [9] = test: as above
How it was run: as §2

CAL-148 [10] = test: as above
How it was run: as §2

MDA-MB-231 [11] = test: as above
How it was run: as §2

MDA-MB-453 [12] = test: as above
How it was run: as §2

DU-4475 [13] = test: as above
How it was run: as §2

MDA-MB-468 [14] = test: as above
How it was run: as §2

COc1ccc(S(=O)(=O)Nc2cccnc2Nc2ccc(O)cc2)cc1 [ABT-751]
Conditions	drug sensitivity score
BT-474	0
BT-549 [2]	10.2
CAL-51	1.79
CAL-85-1	12
CAL-148 [3]	0
DU-4475 [6]	0
HCC1143	0
HCC1599	0
HCC1937	0
HDQ-P1	0
Hs578T [1]	7.06
MCF-10A	4
MDA-MB-231 [4]	8.51
MDA-MB-436	9.27
MDA-MB-453 [5]	0
MDA-MB-468 [7]	4.39

normalised viability [%]
Conditions	BT-549 [9]	CAL-120	CAL-148 [10]	DU-4475 [13]	Hs578T [8]	MDA-MB-231 [11]	MDA-MB-453 [12]	MDA-MB-468 [14]	MFM-223
3 nM	–	–	91.9	88.8	–	–	105	–	–
10 nM	94.1	81.7	–	–	98.9	89.3	–	105	94.7
30 nM	–	–	89.2	95.2	–	–	81.8	–	–
100 nM	–	–	86.7	89.9	–	–	67.9	–	–
1000 nM	77.2	26.8	–	–	16.6	28.8	–	55.9	62.6
10000 nM	13.6	21.6	–	–	14.4	14.7	–	34.7	25.4

Cc1cc(Nc2nc(N[C@@H](C)c3ncc(F)cn3)ncc2Cl)[nH]n1 [AZD1480]
Conditions	drug sensitivity score
BT-474	0
BT-549 [2]	0.354
CAL-51	0
CAL-85-1	0
CAL-148 [3]	0
DU-4475 [6]	0
HCC1143	0
HCC1599	0
HCC1937	0
HDQ-P1	0
Hs578T [1]	1.75
MCF-10A	0
MDA-MB-231 [4]	0
MDA-MB-436	0
MDA-MB-453 [5]	0
MDA-MB-468 [7]	0

normalised viability [%]
Conditions	BT-549 [9]	CAL-120	CAL-148 [10]	DU-4475 [13]	Hs578T [8]	MDA-MB-231 [11]	MDA-MB-453 [12]	MDA-MB-468 [14]	MFM-223
0.3 nM	–	–	93.8	102	–	–	120	–	–
1 nM	91.7	87.9	–	–	145	107	–	109	92.1
3 nM	–	–	97.4	104	–	–	95.6	–	–
10 nM	–	–	99.3	95.8	–	–	110	–	–
100 nM	108	90.6	–	–	102	95.5	–	103	60.8
1000 nM	90.4	72.1	–	–	80.4	85.7	–	84.9	46.2
